SMILES strings stand for the structures. pIC50: −log10 of the molar value. Where “and” joins values, the source holds several entries; their conditions need not be identical. Identical values can stand only once. Like-named read-outs stand apart in the source and are kept apart here.

Test [1] relates to Molp8 multiple myeloma cell line. The experiment in a line: Molp8 multiple myeloma cell line survival assay using Annexin V and 7AAD. Format: cell-based, human. The following applies: live cell percent by Annexin V/7AAD flow cytometry, 3 days incubation, each independent run listed individually, read-out: MOLP8 Apoptosis IC50. From the text:
Molp8 multiple myeloma cell line survival assay using Annexin V and 7AAD.
The Annexin V/7AAD principle is based on the location of phosphatidylserine in the plasma membrane and the integrity of the membrane barrier. During early apoptosis, phosphatidylserine loses its normal distribution patterns in the inner leaflet of the plasma membrane and appears on the exterior of the plasma membrane. Annexin proteins are calcium dependent phospholipid binding proteins and can bind phosphatidylserine on the outer membrane during cell death. The viability dye 7AAD is excluded from entering cells with intact plasma membranes but accumulates in cells that have lost membrane integrity. Annexin Fitc is excited by the 488 nm laser (max excitation: 490 nm, max emission: 525 nm) as is 7AAD (excitation: 488 nm, emission: 650 nm), which allows this assay to be completed on any multicolor flow cytometer.
The assay conditions were optimized using the following 1× reaction buffer: 5 mM HEPES (4-(2-hydroxyethyl)-1-piperazineethanesulfonic acid), 70 mM NaCl, 1.25 mM CaCl2, pH 7.4.
The Molp 8 cells were multiple myeloma, human, in suspension (*cells were counted 2× per week and culture density maintained between 0.5 and 1.5×10^6 cells per ml).
On Day 1, 5×10^4 live cells per well were plated in a 96-well U-bottom plate, with the cells plated in 100 uL RPMI+10% FBS. An 11-point compound dilution plate was prepared in 3-fold steps (Final concentration range 10 μM-0.1 nM) and added at a concentration of 1 μL per well. The plate was then incubated for 3 days at 37° C. and 5% CO2.
On Day 4, the cells were pelleted and the media discarded. The cells were then resuspended in 50 μL AnnexinV-Fitc (1:40 dilution) and 7AAD (1:100 dilution) in Annexin binding buffer, then incubated for 30 min @ room temperature in the dark. 50 μL binding buffer (100 uL total volume) was then added to the cells. There was no wash step required.
Within 2 hours, PeCy5 (7AAD) and Fitc (Annexin) channels were recorded using BD Canto, collecting a minimum per singlet of 10,000 events.
The activity of a test compound was calculated based on the live cell percentage. • LC=Median of the low control values • =Low control: cells without treatment (no greater than 100% live) • HC=Median of the high control values • =High control: cells treated with 10 uM drug (no less than 0% live)
A best-fit curve was fitted by a minimum sum of squares method to the plot of live cell percent vs. compound concentration. From this an IC50 value (inhibitory concentration causing 50% cytotoxicity) was obtained. An estimate of the slope of the plot in terms of the Hill coefficient was also obtained.
On the technique in general: Flow cytometry measures light scatter and fluorescence of single cells or particles in a stream.

In test [2] the test system is MOLP8 cells. In words: MOLP8 CellEvent Caspase-3/7 Green apoptosis activation assay (IncuCyte live-cell kinetic readout). The following applies: each independent run listed. The test is classed as cell-based. On the procedure: MCL-1 is a regulator of apoptosis and is highly over-expressed in tumor cells that escape cell death. The assay evaluates the cellular potency of small-molecule compounds targeting regulators of the apoptosis pathway, primarily MCL-1, Bfl-1, Bcl-2, and other proteins of the Bcl-2 family. Protein-protein inhibitors disrupting the interaction of anti-apoptotic regulators with BH3-domain proteins initiate apoptosis.
Activation of the apoptotic pathway was measured using the CellEvent™ Caspase-3/7 Green ReadyProbes™ Reagent (Thermo Fisher C10423, C10723). This assay produces a green fluorescent stain in cells that enter the apoptosis pathway. CellEvent® Caspase-3/7 Green reagent is a four amino acid peptide (DEVD) conjugated to a nucleic acid-binding dye that is non-fluorescent when not bound to DNA. The CellEvent® Caspase-3/7 Green reagent is intrinsically non-fluorescent, as the DEVD peptide inhibits binding of the dye to DNA. Upon activation of caspase-3/7 in apoptotic cells, the DEVD peptide is cleaved and the free dye can bind DNA, generating a bright green fluorescence. The activation of Caspase-3 and Caspase-7 is downstream of inhibition of MCL-1 or other apoptosis inhibiting proteins in cell lines that are dependent on them.
The live-cell readout on the IncuCyte permits tracking over time of the Caspase activation. […] The IncuCyte readout also allows one to normalize for cell number, as the suspension cells are hard to distribute evenly.
Signals were measured every 2 h for a duration of 22 h. The ratio of the Caspase mask to the Confluence mask, per image, as raw data, was calculated and the kinetic trace for every well was exported to Genedata Screener for analysis.
In Genedata Screener values for 6 h, 12 h, and 22 h from the kinetic traces were extracted. The values were normalized against negative controls (untreated cells). A standard dose-response analysis was performed on the normalized data.
The following data was reported at each of the following three aforementioned time points: (a) The dose-response curve, (b) The qAC50 and qAC50 Mode, and (c) Max Activity.
Cells were maintained in culture medium containing 10% Heat Inactivated (HI) FBS, 2 mM L-Glutamine and 50 µg/mL Gentamycin phenol red free RPMI-1640. Cells were split at 0.4 million/mL twice a week.
On Day 1, plates containing individual wells with test compounds at 10 mM concentration, 150 nL per well. The final concentrations range from […] compound (and no compound control) and compounds were thawed at room temperature for 1 hour. 25 μl of prewarmed medium was added into each well by multidrop (column 1, 3-22, 24), followed by addition of DMSO control (0.6% DMSO) in column 2. The plate was sealed using Breathe-Easy® sealing membrane and shaken for 30 min at room temperature to dissolve the test compound(s) in medium. The plate was then kept in the incubator for 1 hour at 37° C., 5% CO2.
MOLP8 cells in medium at […] (20000/50 μl final in assay) were prepared with CellEvent™ Caspase-3/7 Green Detection Reagent at 4 μM (2 μM final in assay). Once prepared, the cells were added to the test compound plate in an amount of 20000 and the plate was immediately placed in the IncuCyte and imaging started using following settings: 10× objective, 2 s exposure time in green channel, interval of 2 h, acquisition stopped after 22 h.
For analysis in IncuCyte, a Basic Analysis protocol was defined to calculate the “confluence” and “caspase” areas from the “Phase” and “green” images, respectively, as follows: (a) Confluence: Segmentation Adjustment 1, Hole Fill 0, Adjust Size −2, No filters (b) Caspase: Top-Hat segmentation, Radius 10, Threshold 0.3 GCU, Edge Split On with sensitivity 0, Hole Fill 0, Adjust Size 1, and filter on a minimum Area of 20 μm^2. The analyzer is trained on a sufficient number of positive and negative control wells, as well as compound treated wells, verifying that the “confluence” layer detects both live and dead (condensed) cells. […]

By pIC50 is commonly meant −log10 of the IC50, conventionally taken in molar units. For the compound `Cc1c(C(=O)O)n2c3ccc(Cl)c(c13)-c1c(nn(C)c1C)CN(C)Cc1cc(n(C)n1)CSc1cc(c3ccccc3c1)OCCC2` [Compound 3, 15-chloro-13,21,25,61,4-pentamethyl-11H,21H,61H-10-oxa-8-thia-4-aza-1(4,1)-indola-2(4,3),6(3,5)-dipyrazola-9(3,1)-naphthalenacyclotridecaphane-12-carboxylic acid], the negative-log IC50 (pIC50) in test [1] (Homo sapiens, MOLP-8, 72 h) was 6.70; in test [1] it was 6.59. Also, the AC50 is 178 nM and 251 nM in test [2] (6 h, read-out: MOLP8 Caspase 3/7 AC50 at 6 h); 263 nM and 195 nM in test [2] (12 h, read-out: MOLP8 Caspase 3/7 AC50 at 12 h); 347 nM in test [2] (Homo sapiens, MOLP-8, 6 h, 6 h, read-out: MOLP8 Caspase 3/7 AC50 at 6 h); 363 nM in test [2] (Homo sapiens, MOLP-8, 12 h, 12 h, read-out: MOLP8 Caspase 3/7 AC50 at 12 h).

Values taken from patent US20220306653A1, “MACROCYCLIC INHIBITORS OF MCL-1” (Janssen Pharmaceutica NV, priority 2019, published 2022).
